Assay results reported in US20120142750A1, “INDOLEAMINE 2,3-DIOXYGENASE PATHWAYS IN THE GENERATION OF REGULATORY T CELLS” (Regents of the University of Minnesota, priority 2005, published 2012).
Entries after “also recorded” stand apart in the source; their conditions may differ.

Assays:
[1] = test system: CHOP in Tregs; test: Intracellular CHOP expression in Tregs and OT-I cells cultured with TDLN pDCs; assay type: cell-based, mouse; details: 48 hours; with OVA antigen; no bystander cells
From the text: Flow cytometry. Details of the staining protocols are given below. For CHOP and Foxp3 staining, assays were set up without the A1 bystander cells, so that the Tregs were the only CD4^+ cells in the system and thus could be unambiguously followed throughout the assay.
FAGS staining. Antibodies were from BD-Pharmingen unless otherwise noted. Anti-mouse CD25-APC conjugate (clone PC61, cat. #17-0251-81) was from eBioscience: This conjugate gave brighter signal and better separation of CD25^+ cells than other conjugates from other suppliers. For intracellular staining of CHOP, live cells were first blocked for 10 minutes with mouse Fc Block (BD Pharmingen) in 10% fetal calf serum medium, stained with anti-CD4-FITC for 30 minutes on ice, washed with PBS, then fixed and permeablized for 20 minutes in 250 ul Cytoperm/Cytofix solution (BD Pharmingen) on ice. All subsequent staining and wash steps were in BD Permwash solution. Fixed cells were stained with 1:100 dilution of monoclonal anti-gadd153/CHOP (sc-7351, Santa Cruz Biotechnology), washed, and stained with secondary monoclonal rat anti-mouse-IgG1-PE (#550083, BD Biosciences). […] For CHOP staining, assays were set up without A1 bystander cells, so that Tregs were the only CD4^+ cells, and thus could be unambiguously followed throughout the assay. […]

[2] = test system: BM3 T cells; test: Ex vivo T cell suppression assays with sorted Tregs from treated mice; assay type: in vivo, mouse
Experimental: CpG Oligonucleotides. CpG-ODNs (CpG no. 1826, […]; (SEQ ID NO:4) and sequence matched non-CpG-B no. 2138, […] (SEQ ID NO:5)) with fully phosphorothioate backbones were purchased from Coley Pharmaceuticals. Mice were injected with relatively high doses of ODNs (50 μg/mouse, i/v) as described (Mellor et al. J Immunol 2005; 175:5601-5605).
1-methyl-[D]-tryptophan (1 mT). 1 mT (catalog number 45, 248-3, Sigma) was prepared as a 20 mM stock solution in 0.1 N NaOH, adjusted to pH 7.4, and stored at −20° C. protected from light. For in vitro use, 1 mT was added to MLRs to a final concentration of 100 μM. For in vivo treatment, slow-release polymer pellets (*5 mg/day) containing 1 mT or vehicle alone were inserted under the dorsal skin as described (Munn et al. Science 1998; 281:1191-1193) 24 hours before CpG treatment.
Preparative flow cytometry to sort CD4+ T cells subsets. CD4+ T cell subsets were purified using a Mo-Flo cytometer as described (Mellor et al. J Immunol 2005; 175:5601-5605; Munn et al. Immunity 2005; 22:1-10).
Ex vivo T cell suppression assays. Suppression assays were performed by adding sorted CD4+ cells to T cell proliferation assays (72 hour thymidine incorporation assays) containing responder H-2K^b-specific splenocytes from BM3 TCR transgenic mice (nylon-wool enriched) and CD11c+ splenocytes (AutoMacs enriched) from CBK (H-2K^b transgenic CBA) mice prepared as described (Mellor et al. J Immunol 2005; 175:5601-5605).

[3] = test system: primed CD4+ T cells / naive CD4+ T cells; test: MLR assays of function of CpG-PDC or CpG-B cell primed CD4+ T cells; assay type: cell-based, human
Experimental: In vitro priming of naive CD4+ T cells. CD4+CD45RA+ naive T cells were primed with allogeneic PDCs or irradiated B cells (30 Gy) at a 10:1 ratio (e.g., 2×10^6 naive CD4+ T cells plus 2×105 PDCs per well in 24-well plates) with ODN 2216 or ODN 2006 present in RPMI 1640 medium supplemented with 10% human AB serum. 1 MT and/or KYN were added into CpG ODN-PDC or CpG ODN-B cell mediated naive CD4+ T cell priming cultures as indicated. In some experiments, blocking Abs against CD80, CD86, HLA-DR or the control IgG Ab (R&D Systems, Minneapolis, Minn.) were added to CpG-PDC-mediated naive CD4+ T cell priming cultures at a final Ab concentration ranging from 0.1 to 10 μg/ml. After 7 days, primed T cells in cultures were harvested, assessed for their surface phenotype, intracellular Foxp3 expression, and their function in MLR assays.
MLR assays. […] In all T cell proliferation assays, plates were incubated at 37° C. for 5 days and pulsed with 1 μCi of 3H-thymidine per well for the last 18 hours before harvesting. All determinations were carried out in triplicate and 3H-thymidine incorporation was determined.

## Cn1cc(C[C@@H](N)C(=O)O)c2ccccc21 [Inhibitor 1MT, 1-methyl-D-tryptophan]
[1]
  CHOP induction in Tregs (and OT-I): abrogated
[2]; 100 μM in culture, Tregs from CpG-treated mice
  reversal of Treg-mediated suppression by IDO inhibitor added to parallel cultures: did not reverse suppression
[2]; slow-release pellets 24 hours before CpG, IDO-WT mice
  CpG-mediated stimulation of Treg suppressive functions, IDO inhibitor given to Treg donor mice: prevented CpG-mediated stimulation of Treg suppressive functions
[3]; 1MT added to priming MLRs with IDO-negative B cells
  T cell responses after priming with CpG ODN-activated B cells (control for nonspecific effects): no nonspecific effect
[3]; 1MT present during priming
  anergy/hyporesponsiveness of primed CD4+ T cells to subsequent alloantigen stimulation: prevented CD4+ T cells from becoming anergic/hyporesponsive
  suppressor/regulatory activity of PDC-primed T cells on proliferation of naive CD4+ T cells in MLR: blocked the generation of suppressor/regulatory activity; also recorded: markedly reduced
